What all share (format): biochemical
One assay has as its target CDK2/CyclinA (Homo sapiens (Human), UniProt P24941). Nature of the assay: CDK2/CyclinA kinase assay (Nanosyn, Caliper microfluidic). The following applies: Table 2; for IC50: read-out: CDK2/CycA IC50. On the procedure: (§1) Selected compounds disclosed herein were tested in CDK4/cyclinD1, CDK6/CycD3 CDK2/CycA and CDK2/cyclinE kinase assays by Nanosyn (Santa Clara, Calif.) to determine their inhibitory effect on these CDKs. The assays were performed using microfluidic kinase detection technology (Caliper Assay Platform). The compounds were tested in 12-point dose-response format in singlicate at Km for ATP. Phosphoacceptor substrate peptide concentration used was 1 μM for all assays and Staurosporine was used as the reference compound for all assays. Specifics of each assay are as described below:
CDK2/CyclinA: Enzyme concentration: 0.2 nM; ATP concentration: 50 μM; Incubation time: 3 hr.

The target in the next assay is CDK4/CyclinD1 (Homo sapiens (Human), UniProt P11802). In words: CDK4/CyclinD1 kinase assay (Nanosyn, Caliper microfluidic). The note with it: Table 2; read-out: CDK4/CycD1 IC50. On the procedure:
as §1
CDK4/CyclinD1: Enzyme concentration: 1 nM; ATP concentration: 200 μM; Incubation time: 10 hr.

A further assay has as its target CDK2/CyclinE (Homo sapiens (Human), UniProt P24941). Nature of the assay: CDK2/CyclinE kinase assay (Nanosyn, Caliper microfluidic). The following applies: Table 2; for IC50: read-out: CDK2/CycE IC50. On the procedure:
Selected compounds disclosed herein were tested in CDK4/cyclinD1, CDK6/CycD3 CDK2/CycA and CDK2/cyclinE kinase assays by Nanosyn (Santa Clara, Calif.) to determine their inhibitory effect on these CDKs. The assays were performed using microfluidic kinase detection technology (Caliper Assay Platform). The compounds were tested in 12-point dose-response format in singlicate at Km for ATP. Phosphoacceptor substrate peptide concentration used was 1 μM for all assays and Staurosporine was used as the reference compound for all assays.

Structures are written as SMILES.

Sequence of CDK4/CyclinD1 (P11802 whole entry, species assumed): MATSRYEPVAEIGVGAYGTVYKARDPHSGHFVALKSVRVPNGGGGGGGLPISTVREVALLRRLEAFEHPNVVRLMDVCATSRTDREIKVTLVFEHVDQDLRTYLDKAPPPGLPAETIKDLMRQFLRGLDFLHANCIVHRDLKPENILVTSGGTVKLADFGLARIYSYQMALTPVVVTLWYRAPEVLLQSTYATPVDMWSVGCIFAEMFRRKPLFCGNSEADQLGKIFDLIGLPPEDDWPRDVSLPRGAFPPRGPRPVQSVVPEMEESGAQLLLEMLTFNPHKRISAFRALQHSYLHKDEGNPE
Sequence of CDK4/CyclinD1 (P24385 whole entry partner, species assumed): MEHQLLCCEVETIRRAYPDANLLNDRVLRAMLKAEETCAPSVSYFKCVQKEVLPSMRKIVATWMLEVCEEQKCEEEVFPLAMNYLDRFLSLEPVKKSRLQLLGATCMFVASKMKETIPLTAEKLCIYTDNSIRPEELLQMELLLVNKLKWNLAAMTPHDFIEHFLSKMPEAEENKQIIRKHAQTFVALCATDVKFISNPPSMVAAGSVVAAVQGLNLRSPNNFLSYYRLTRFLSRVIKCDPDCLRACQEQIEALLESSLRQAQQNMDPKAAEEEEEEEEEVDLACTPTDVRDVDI

Regarding `CC(C)N1CCN(c2ccc(Nc3ncc4cc5n(c4n3)C3(CCCCC3)CNC5=O)nc2)C[C@@H]1C` [AA], at CDK2/CyclinA, the “Fold Selectivity (CDK2/CycA/CDK4)” value is recorded as 10109 and the IC50 came out at 4.63 µM. Further, the IC50 on CDK4/CyclinD1 came out at 0.0005 µM. Moreover, at CDK2/CyclinE, the “Fold Selectivity (CDK2/CycE/CDK4)” value came out at 13319 and the IC50 was determined as 6.1 µM.
Turning to `C[C@H](O)CN1CCN(c2ccc(Nc3ncc4cc5n(c4n3)C3(CCCCC3)CNC5=O)nc2)CC1` [A], on CDK2/CyclinA, the “Fold Selectivity (CDK2/CycA/CDK4)” value turned out to be 754 and the IC50 amounted to 3.16 µM. Further, the IC50 at CDK4/CyclinD1 was determined as 0.0042 µM. Further, on CDK2/CyclinE, the “Fold Selectivity (CDK2/CycE/CDK4)” value is reported as 1516 and the IC50 is 6.35 µM.
As to `CC1(C)CN(c2ccc(Nc3ncc4cc5n(c4n3)C3(CCCCC3)CNC5=O)nc2)CCN1C1CC1` [BB], at CDK2/CyclinA, the “Fold Selectivity (CDK2/CycA/CDK4)” value worked out at 603 and the IC50 came to 0.502 µM. Moreover, on CDK4/CyclinD1, the IC50 amounted to 0.0008 µM. For the same molecule, at CDK2/CyclinE, the “Fold Selectivity (CDK2/CycE/CDK4)” value is 2017 and the IC50 was 1.68 µM.
The corresponding values for `C[C@H]1CN(c2ccc(Nc3ncc4cc5n(c4n3)C3(CCCCC3)CNC5=O)nc2)CCN1CC1CC1` [B] are 4266, 1.89 µM, 0.0004 µM, 6862 and 3.04 µM.
As to `CC(C)(C)CCN1CCN(c2ccc(Nc3ncc4cc5n(c4n3)C3(CCCC3)CNC5=O)nc2)CC1(C)C` [CCC], at CDK2/CyclinA, the “Fold Selectivity (CDK2/CycA/CDK4)” value stood at 226 and the IC50 came out at 0.457 µM. The IC50 on CDK4/CyclinD1 is 0.002 µM. In addition, on CDK2/CyclinE, the “Fold Selectivity (CDK2/CycE/CDK4)” value is 1074 and the IC50 was found to be 2.17 µM.
`CCN(CC)C1CCN(c2ccc(Nc3ncc4cc5n(c4n3)C3(CCCCC3)CNC5=O)nc2)CC1` [CC]: at CDK2/CyclinA, the “Fold Selectivity (CDK2/CycA/CDK4)” value was 478. Also, the IC50 at CDK2/CyclinA was determined as 0.755 µM; on CDK4/CyclinD1 it was 0.0016 µM; at CDK2/CyclinE it was 1.25 µM. At CDK2/CyclinE, the “Fold Selectivity (CDK2/CycE/CDK4)” value turned out to be 791.
Consider `C[C@H](O)CN1CCN(c2ccc(Nc3ncc4cc5n(c4n3)C3(CCCCC3)CNC5=O)nc2)C[C@@H]1C` [C], for which the “Fold Selectivity (CDK2/CycA/CDK4)” value at CDK2/CyclinA was found to be 428. In addition, the IC50 on CDK2/CyclinA turned out to be 0.616 µM; on CDK4/CyclinD1 it was 0.0014 µM; at CDK2/CyclinE, 1.92 µM. The “Fold Selectivity (CDK2/CycE/CDK4)” value on CDK2/CyclinE was 1333.
Turning to `C[C@@H]1CN(c2ccc(Nc3ncc4cc5n(c4n3)C3(CCCC3)CNC5=O)nc2)C[C@H](C)N1` [DDD], on CDK4/CyclinD1, the IC50 amounted to 0.0095 µM. Besides, on CDK2/CyclinE, the “Fold Selectivity (CDK2/CycE/CDK4)” value was determined as 986 and the IC50 came out at 9.35 µM.
In the case of `C[C@@H]1CN(c2ccc(Nc3ncc4cc5n(c4n3)C3(CCCCC3)CNC5=O)nc2)C[C@H](C)N1C` [DD], the “Fold Selectivity (CDK2/CycA/CDK4)” value at CDK2/CyclinA was 4519. In addition, the results for the IC50 on CDK2/CyclinA, at CDK4/CyclinD1 and on CDK2/CyclinE were 8.36 µM, 0.0019 µM and 9.62 µM, respectively. Further, the “Fold Selectivity (CDK2/CycE/CDK4)” value on CDK2/CyclinE came out at 5200.
The corresponding values for `CN1CCN(c2ccc(Nc3ncc4cc5n(c4n3)C3(CCCCC3)CNC5=O)nc2)CC1(C)C` [D] are 1629, 1.5 µM, 0.0009 µM, 3.48 µM and 3779.
For `CC(C)(O)CN1CCN(c2ccc(Nc3ncc4cc5n(c4n3)C3(CCCC3)CNC5=O)nc2)CC1` [EEE], the “Fold Selectivity (CDK2/CycA/CDK4)” value on CDK2/CyclinA was 405. The IC50 on CDK2/CyclinA came out at 0.943 µM; on CDK4/CyclinD1, 0.0023 µM; at CDK2/CyclinE it was 2.95 µM. Moreover, on CDK2/CyclinE, the “Fold Selectivity (CDK2/CycE/CDK4)” value was determined as 1266.
For the molecule `CC(C)N1CCN(Cc2ccc(Nc3ncc4cc5n(c4n3)C3(CCCCC3)CNC5=O)nc2)CC1` [EE], on CDK2/CyclinA, the “Fold Selectivity (CDK2/CycA/CDK4)” value was 289 and the IC50 turned out to be 1.11 µM. Besides, the IC50 at CDK4/CyclinD1 worked out at 0.0038 µM. Besides, at CDK2/CyclinE, the “Fold Selectivity (CDK2/CycE/CDK4)” value turned out to be 432 and the IC50 was found to be 1.66 µM.
Consider `CC(C)C1CN(c2ccc(Nc3ncc4cc5n(c4n3)C3(CCCCC3)CNC5=O)nc2)CCN1` (stereo not drawn) [E], for which, at CDK2/CyclinA, the “Fold Selectivity (CDK2/CycA/CDK4)” value is on record as 202. Further, the IC50 on CDK2/CyclinA is 0.204 µM; at CDK4/CyclinD1 it was 0.001 µM; at CDK2/CyclinE, 0.695 µM. In addition, the “Fold Selectivity (CDK2/CycE/CDK4)” value at CDK2/CyclinE was determined as 688.
The matching figures for `CCN1[C@H](C)CN(c2ccc(Nc3ncc4cc5n(c4n3)C3(CCCCC3)CNC5=O)nc2)C[C@@H]1C` [FF]: 1197, 1.4 µM, 0.0012 µM, 4.62 µM and 3949.
The matching figures for `O=C1NCC2(CCCCC2)n2c1cc1cnc(Nc3ccc(N4CCN(C5CCC5)CC4)cn3)nc12` [F]: 127, 0.19 µM, 0.0015 µM, 0.628 µM and 419.
As to `CC(C)N1CCN(c2ccc(Nc3ncc4cc5n(c4n3)C3(CCCC3)CNC5=O)nc2)CC1C` (stereo not drawn) [GGG], on CDK4/CyclinD1, the IC50 came out at 0.0137 µM. In addition, at CDK2/CyclinE, the “Fold Selectivity (CDK2/CycE/CDK4)” value was found to be 555 and the IC50 is 7.61 µM.
Turning to `CC1CN(c2ccc(Nc3ncc4cc5n(c4n3)C3(CCCCC3)CNC5=O)nc2)CCN1CCC(C)(C)C` (stereo not drawn) [G], at CDK2/CyclinA, the “Fold Selectivity (CDK2/CycA/CDK4)” value worked out at 442 and the IC50 stood at 0.646 µM. Besides, the IC50 on CDK4/CyclinD1 was determined as 0.0015 µM. Also, on CDK2/CyclinE, the “Fold Selectivity (CDK2/CycE/CDK4)” value is 1767 and the IC50 was determined as 2.58 µM.
In the case of `O=C1NCC2(CCCC2)n2c1cc1cnc(Nc3ccc(N4CCC(N5CCCCC5)CC4)cn3)nc12` [HHH], the IC50 at CDK4/CyclinD1 is 0.0068 µM. Besides, at CDK2/CyclinE, the “Fold Selectivity (CDK2/CycE/CDK4)” value is 419 and the IC50 came to 2.84 µM.
For `O=C1NCC2(CCCCC2)n2c1cc1cnc(Nc3ccc(N4CCN(CC5CC5)CC4)cn3)nc12` [HH], the “Fold Selectivity (CDK2/CycA/CDK4)” value on CDK2/CyclinA is listed as 159. The IC50 came out at 0.265 µM on CDK2/CyclinA, 0.0017 µM at CDK4/CyclinD1 and 1.28 µM at CDK2/CyclinE. Besides, the “Fold Selectivity (CDK2/CycE/CDK4)” value at CDK2/CyclinE is 766.
The matching figures for `CC1(C)CN(c2ccc(Nc3ncc4cc5n(c4n3)C3(CCCCC3)CNC5=O)nc2)CCN1CC1CC1` [H]: 251, 0.377 µM, 0.0015 µM, 1.52 µM and 1013.
Take `CC(C)N1CCN(c2ccc(Nc3ncc4cc5n(c4n3)C3(CCCC3)CNC5=O)nc2)CC1` [III]: on CDK4/CyclinD1, the IC50 came to 0.006 µM. At CDK2/CyclinE, the “Fold Selectivity (CDK2/CycE/CDK4)” value is listed as 626 and the IC50 came out at 3.77 µM.
The corresponding values for `CCN(CC)C1CCN(C(=O)c2ccc(Nc3ncc4cc5n(c4n3)C3(CCCCC3)CNC5=O)nc2)C1` (stereo not drawn) [JJ] are 0.0014 µM, 204 and 0.288 µM.
The corresponding values for `O=C1NCC2(CCCCC2)n2c1cc1cnc(Nc3ccc(N4CCC(N5CCCCC5)CC4)cn3)nc12` [N] are 0.001 µM, 1500 and 1.5 µM.
For the molecule `CN(C)C1CCN(c2ccc(Nc3ncc4cc5n(c4n3)C3(CCCCC3)CNC5=O)nc2)CC1` [O], at CDK2/CyclinA, the “Fold Selectivity (CDK2/CycA/CDK4)” value is 1245 and the IC50 turned out to be 3.15 µM.
With `O=C1NCC2(CCCC2)n2c1cc1cnc(Nc3ccc(N4CCNCC4)cn3)nc12` [QQQ], the IC50 at CDK4/CyclinD1 was found to be 0.0105 µM; at CDK2/CyclinE it was 11.1 µM. Besides, the “Fold Selectivity (CDK2/CycE/CDK4)” value at CDK2/CyclinE turned out to be 1057.
The corresponding values for `CC(C)N1CCN(c2ccc(Nc3ncc4cc5n(c4n3)C3(CCCC3)CNC5=O)nn2)CC1` [RRR] are 0.0026 µM, 4.5 µM and 1758.
The corresponding values for `CN(C)C1CCN(c2ccc(Nc3ncc4cc5n(c4n3)C3(CCCC3)CNC5=O)nn2)CC1` [TTT] are 0.0034 µM, 3.03 µM and 899.
Turning to `CC(C)[C@H]1CNC(=O)c2cc3cnc(Nc4ccc(N5CCNCC5)cn4)nc3n21` [UUU], the IC50 on CDK4/CyclinD1 was found to be 0.018 µM; at CDK2/CyclinE it was 16.5 µM. Further, the “Fold Selectivity (CDK2/CycE/CDK4)” value on CDK2/CyclinE is given as 914.
As for `CCN(CC)C1CCN(c2ccc(Nc3ncc4cc5n(c4n3)C3(CCCC3)CNC5=O)nc2)C1` (stereo not drawn) [UU], the IC50 at CDK4/CyclinD1 was 0.0073 µM; on CDK2/CyclinE, 3.96 µM. Also, the “Fold Selectivity (CDK2/CycE/CDK4)” value at CDK2/CyclinE was 542.
Regarding `CC(C)C[C@@H]1CNC(=O)c2cc3cnc(Nc4ccc(N5CCNCC5)cn4)nc3n21` [WWW], the IC50 at CDK4/CyclinD1 was determined as 0.0185 µM. Further, at CDK2/CyclinE, the “Fold Selectivity (CDK2/CycE/CDK4)” value is reported as 135 and the IC50 came to 2.5 µM.
As to `CC(C)C[C@@H]1CNC(=O)c2cc3cnc(Nc4ccc(N5CCN(C)CC5)cn4)nc3n21` [XXX], on CDK4/CyclinD1, the IC50 came out at 0.0114 µM. Also, on CDK2/CyclinE, the “Fold Selectivity (CDK2/CycE/CDK4)” value came out at 581 and the IC50 was 6.62 µM.
For the molecule `CN(C)C1CCN(c2ccc(Nc3ncc4cc5n(c4n3)C3(CCCC3)CNC5=O)nc2)CC1` [YY], the IC50 at CDK4/CyclinD1 was 0.0046 µM. On CDK2/CyclinE, the “Fold Selectivity (CDK2/CycE/CDK4)” value came out at 1490 and the IC50 came out at 6.9 µM.
Regarding `CN1CCN(c2ccc(Nc3ncc4cc5n(c4n3)C3(CCCC3)CNC5=O)nc2)CC1` [ZZ], the IC50 on CDK4/CyclinD1 was 0.0105 µM. For the same molecule, on CDK2/CyclinE, the “Fold Selectivity (CDK2/CycE/CDK4)” value was 949 and the IC50 was found to be 9.96 µM.
